Measurements reported in US10023561B2, “Fumagillol heterocyclic compounds and methods of making and using same” (Zafgen, Inc., priority 2015, dated 2018).
Values joined by “and” are separate entries in the source; they are usually repeats but may differ in a detail not shown here. Identical values can stand only once. Counter-ions that a name gives are not always drawn. Like-named read-outs stand apart in the source and are kept apart here.

Key:
[1] = system: Diet Induced Obese (DIO) C57BL/6 mice; assay: 10 day DIO mouse model (body weight, food intake, hematology, blood chemistry); type: in vivo
Description: The objective of this study design was to investigate the efficacy of disclosed compounds in a 10 day DIO mouse model. Effects on body weight, food intake, hematology and blood chemistry were the primary readouts of this study design. […] Mice were fed Research Diets D12492 (60% Kcal fat, 20% Kcal carbohydrate and 20% protein) and provided water ad libitum. DIO mice were received and housed in the facility for approximately two weeks prior to the start of test article administration. On Day −4 or −3, mice were randomized into study groups based on body weight and body weights were continued to be recorded daily for the duration of the study. Daily food intake was assessed starting on Study Day −2 by weighing of the food with hopper together to avoid loss of food in transfer.
(§1) Compounds were formulated into a 100% DMSO stock (at 9 mg/mL) prior to the start, and further diluted into the target working concentration using the vehicle of 10% DMSO in water. Prior to test article administration, starting on Day −3 a dosing acclimation occurred with all animals receiving a subcutaneous injection of vehicle (10% DMSO) only for 3 days. Starting on Day 1, test compounds or vehicle were administered based on individual body weight, subcutaneously, once a day for 10 days. All mice were sacrificed on Day 11, 24 hours following the final dosing on Day 10. After sacrifice, whole blood was collected and analyzed for hematology and blood chemistry parameters.
(§2) Compounds were tested vs. vehicle at various doses (1.0, 0.5, 0.3, 0.1, 0.03 mpk sc (mg per kg animal weight delivered subcutaneously), and the results are shown in Table 2 below.

[2] = system: Sprague Dawley rats on 45% high fat diet; assay: 11 day rat DIO model (body weight, food intake, hematology, blood chemistries); type: in vivo
Description: The objective of this study design is to investigate the efficacy of disclosed compounds in an 11 day rat DIO model used to screen compounds for pharmacologic efficacy on endpoints related to obesity and metabolism. Effects on body weight, food intake, hematology and blood chemistries were the primary readouts of this study design. […] Rats were fed Research Diets D12451 (45% High Fat) and provided water ad libitum. Rats were received and housed in the facility for at least two or three weeks prior to start of test article administration. On Day −4 or −3, rats were randomized into study groups based on body weight and body weights were continued to be recorded daily for the duration of the study. Daily food intake was assessed starting on Study Day −2 by weighing the hopper including the food to avoid loss of food in transfer.
as §1, with “for 11” for “for 10”, “All animals” for “All mice”, “11, approximately 2” for “11, 24”, “Day 11.” for “Day 10.”
as §2

[3] = system: human fibrosarcoma cell line HT-1080; assay: HT-1080 cell proliferation assay (CellTiter-Glo, 72 hours); type: cell-based
recombinant human MetAP2 = recombinant human MetAP2 (Homo sapiens (Human), UniProt P50579); assay: recombinant human MetAP2 enzyme inhibition assay (MAS peptide / amino acid oxidase / Amplex UltraRed); type: biochemical; settings: recombinant human MetAP2, 25 minutes at 25° C.
Experimental: Compounds are tested for their capacity to inhibit recombinant human MetAP2 activity using the following assay.
Flag tagged Human recombinant MetAP2 expressed and isolated for use as the enzyme source. 10 mM stock solutions of compounds were prepared in 100% DMSO and further diluted in 100% DMSO required concentration to 1 mM stocks. The stock compound solutions and DMSO vehicle controls were diluted to target final compound concentrations using assay buffer to a final concentration of 50 mM HEPES containing 100 mM NaCl, pH adjusted to 7.5. The MAS peptide was formulated to a 7.5 mM stock in distilled water and prior to use further diluted 1:4. […] 40 μl of enzyme was mixed with 100 μl of MnCl2 then further diluted in assay buffer to a final concentration of 16 μg/ml. To test for compound effect on MetAP2 enzyme activity, 5 μl of test compound, 10 μl of MAS substrate/amino acid oxidase mixture, 10 μl of MetAP2 was added to test wells in a 384 well black plate with blank wells containing no enzyme, replaced with 10 μl of assay buffer. All compounds were tested in duplicate on two occasions on the same day.
The plate was sealed with a TopSeal A cover and mixed briefly on an orbital mixer at 900 rpm. The plate was incubated for a further 25 minutes at 25° C. […] At the end of the MetAP2 incubation 25 μl Amplex/HRP mixture per well was added and the plate read plate on a plate reader.

[4] = HT-1080, 72 h, read-out: HT-1080 EC50 (nM)
[5] = HT-1080 cells, 72 hours incubation, CellTiter-Glo, read-out: HT-1080 EC50

Sequence of recombinant human MetAP2 (P50579 whole entry): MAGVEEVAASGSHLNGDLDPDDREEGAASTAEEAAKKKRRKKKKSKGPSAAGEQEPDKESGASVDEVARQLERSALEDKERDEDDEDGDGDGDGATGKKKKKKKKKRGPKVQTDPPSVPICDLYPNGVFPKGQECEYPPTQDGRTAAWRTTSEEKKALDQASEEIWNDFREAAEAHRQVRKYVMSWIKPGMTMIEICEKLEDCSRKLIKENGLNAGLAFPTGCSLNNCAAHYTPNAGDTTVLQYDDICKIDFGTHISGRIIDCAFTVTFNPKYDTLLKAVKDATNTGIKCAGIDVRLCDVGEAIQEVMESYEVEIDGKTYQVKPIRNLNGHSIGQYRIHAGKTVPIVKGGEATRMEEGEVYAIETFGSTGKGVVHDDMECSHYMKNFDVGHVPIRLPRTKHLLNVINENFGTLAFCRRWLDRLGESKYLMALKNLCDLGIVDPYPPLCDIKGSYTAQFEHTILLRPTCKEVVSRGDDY

Structure (SMILES): CO[C@@H]1[C@H](OC(=O)N2CC(CCN3CC(O)C3)C2)CC[C@]2(CO2)[C@H]1[C@@]1(C)O[C@@H]1CC=C(C)C [Example 6, (3R,4S,5S,6R)-5-methoxy-4-((2R,3R)-2-methyl-3-(3-methylbut-2-enyl)oxiran-2-yl)-1-oxaspiro[2.5]octan-6-yl 3-(2-(3-hydroxyazetidin-1-yl)ethyl)azetidine-1-carboxylate formate]
- DIO Mouse 10-day weight loss vs vehicle ([1]; mouse, in vivo): 11.8%
- DIO Rat 11-day weight loss vs vehicle ([2]; rat, in vivo, formate): 0.8% and 4.6%
- EC50 [3, 4]: < 0.3 nM

Structure (SMILES): CO[C@@H]1[C@H](OC(=O)N2CC(CCN3CCC(O)CC3)C2)CC[C@]2(CO2)[C@H]1[C@@]1(C)O[C@@H]1CC=C(C)C [Example 7, (3R,4S,5S,6R)-5-methoxy-4-((2R,3R)-2-methyl-3-(3-methylbut-2-en-1-yl)oxiran-2-yl)-1-oxaspiro[2.5]octan-6-yl 3-(2-(4-hydroxypiperidin-1-yl)ethyl)azetidine-1-carboxylate]
- DIO Mouse 10-day weight loss vs vehicle ([1]; DIO mouse, 0.3 mpk sc once a day, 10 days): 1.8%

Structure (SMILES): CO[C@@H]1[C@H](OC(=O)N2CC(CCN3CC(C)(O)C3)C2)CC[C@]2(CO2)[C@H]1[C@@]1(C)O[C@@H]1CC=C(C)C [Example 9, (3R,4S,5S,6R)-5-methoxy-4-((2R,3R)-2-methyl-3-(3-methylbut-2-enyl)oxiran-2-yl)-1-oxaspiro[2.5]octan-6-yl 3-(2-(3-hydroxy-3-methylazetidin-1-yl)ethyl)azetidine-1-carboxylate formate]
- DIO Mouse 10-day weight loss vs vehicle ([1]; mouse, in vivo): 7.4%
- DIO Rat 11-day weight loss vs vehicle ([2]; rat, in vivo, formate): 5.5% and 4.8%
- EC50 [3, 4]: < 0.3 nM

Structure (SMILES): CO[C@@H]1[C@H](OC(=O)N2CC(CCN3CC4C(C3)C4(F)F)C2)CC[C@]2(CO2)[C@H]1[C@@]1(C)O[C@@H]1CC=C(C)C (stereo partly drawn) [Example 22, (3R,4S,5S,6R)-5-methoxy-4-((2R,3R)-2-methyl-3-(3-methylbut-2-enyl)oxiran-2-yl)-1-oxaspiro[2.5]octan-6-yl 3-(2-(6,6-difluoro-3-azabicyclo[3.1.0]hexan-3-yl)ethyl)azetidine-1-carboxylate formate]
- DIO Mouse 10-day weight loss vs vehicle ([1]; mouse, in vivo): 14%
- EC50 [3, 4]: 0.3 to 1.3 nM

Structure (SMILES): CO[C@@H]1[C@H](OC(=O)N2CC(CCCN3CCCC3)C2)CC[C@]2(CO2)[C@H]1[C@@]1(C)O[C@@H]1CC=C(C)C [Example 59, (3R,4S,5S,6R)-5-methoxy-4-((2R,3R)-2-methyl-3-(3-methylbut-2-enyl)oxiran-2-yl)-1-oxaspiro[2.5]octan-6-yl 3-(3-(pyrrolidin-1-yl)propyl)azetidine-1-carboxylate formate]
- IC50 (recombinant human MetAP2): < 50 nM
- body weight loss vs vehicle at 0.3 mg/kg ([1]; 240 h, DIO mouse, 0.3 mpk sc once a day, 10 days): 9.1%

Structure (SMILES): CNC(=O)OC1CN(C(=O)O[C@@H]2CC[C@]3(CO3)[C@@H]([C@@]3(C)O[C@@H]3CC=C(C)C)[C@@H]2OC)C1 [Example 74, (3R,4S,5S,6R)-5-methoxy-4-((2R,3R)-2-methyl-3-(3-methylbut-2-enyl)oxiran-2-yl)-1-oxaspiro[2.5]octan-6-yl 3-(methylcarbamoyloxy)azetidine-1-carboxylate]
- EC50 [3, 5]: < 0.3 nM

Structure (SMILES): CCN(CC)CCNC(=O)CCC1CN(C(=O)O[C@@H]2CC[C@]3(CO3)[C@@H]([C@@]3(C)O[C@@H]3CC=C(C)C)[C@@H]2OC)C1 [Example 88, (3R,4S,5S,6R)-5-methoxy-4-((2R,3R)-2-methyl-3-(3-methylbut-2-enyl)oxiran-2-yl)-1-oxaspiro[2.5]octan-6-yl 3-(3-(2-(diethylamino)ethylamino)-3-oxopropyl)azetidine-1-carboxylate formate]
- DIO Mouse 10-day weight loss vs vehicle ([1]; mouse, in vivo): 9%
- DIO Rat 11-day weight loss vs vehicle ([2]; rat, in vivo): 4.4%
- EC50 [3, 4]: 0.3 to 1.3 nM

Structure (SMILES): CCN(CC)CCC1CN(C(=O)O[C@@H]2CC[C@]3(CO3)[C@@H]([C@@]3(C)O[C@@H]3CC=C(C)C)[C@@H]2OC)C1 [Example 103, (3R,4S,5S,6R)-5-methoxy-4-((2R,3R)-2-methyl-3-(3-methylbut-2-enyl)oxiran-2-yl)-1-oxaspiro[2.5]octan-6-yl 3-(2-(diethylamino)ethyl)azetidine-1-carboxylate]
- EC50 [3, 5]: < 0.3 nM

Structure (SMILES): CCN(CC)CCC1CCN1C(=O)O[C@@H]1CC[C@]2(CO2)[C@@H]([C@@]2(C)O[C@@H]2CC=C(C)C)[C@@H]1OC (stereo partly drawn) [Example 106, (3R,4S,5S,6R)-5-methoxy-4-((2R,3R)-2-methyl-3-(3-methylbut-2-enyl)oxiran-2-yl)-1-oxaspiro[2.5]octan-6-yl 2-(2-(diethylamino)ethyl)azetidine-1-carboxylate]
- DIO Mouse 10-day weight loss vs vehicle ([1]; DIO mouse, 0.1 mpk sc once a day, 10 days): 2%
- DIO Rat 11-day weight loss vs vehicle ([2]; DIO rat, 0.5 mpk sc once a day, 11 days): 4.82%
